“And” between values parts separate entries of the source, which are not always exact repeats. Equal values may be shown once. Inconclusive results and toxic doses are left out.
System: BDF1 mice, P388 leukemia ip, median survival T/C
Test: NCI In Vivo Anticancer Drug Screen. Data for tumor model P388 Leukemia (intraperitoneal) in B6D2F1 (BDF1) mice
Settings: endpoint: median survival time, higher = longer survival
How it was run: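 Survival ratio, drug arm over vehicle arm, in mice with a transplanted tumour.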

[1] = dose: 400.0 mg/kg/injection, schedule: Q01DX009 (ip), vehicle: Klucel (hydroxypropylcellulose) (HPC)
[2] = dose: 50.0 mg/kg/injection, schedule: Q01DX005 (ip), vehicle: saline with Tween-80
[3] = dose: 100.0 mg/kg/injection, schedule: Q01DX005 (ip), vehicle: saline with Tween-80
[4] = dose: 200.0 mg/kg/injection, schedule: Q01DX005 (ip), vehicle: saline with Tween-80
[5] = dose: 100.0 mg/kg/injection, schedule: Q04DX003 (ip), vehicle: saline with Tween-80
[6] = dose: 200.0 mg/kg/injection, schedule: Q04DX003 (ip), vehicle: saline with Tween-80
[7] = dose: 50.0 mg/kg/injection, schedule: Q04DX003 (ip), vehicle: saline with Tween-80
[8] = dose: 400.0 mg/kg/injection, schedule: Q04DX003 (ip), vehicle: saline with Tween-80
[9] = dose: 50.0 mg/kg/injection, schedule: Q01DX009 (ip), vehicle: saline with Tween-80
[10] = dose: 100.0 mg/kg/injection, schedule: Q01DX009 (ip), vehicle: saline with Tween-80
[11] = dose: 100.0 mg/kg/injection, schedule: Q04DX003 (ip), vehicle: Klucel (hydroxypropylcellulose) (HPC)
[12] = dose: 200.0 mg/kg/injection, schedule: Q04DX003 (ip), vehicle: Klucel (hydroxypropylcellulose) (HPC)
[13] = dose: 25.0 mg/kg/injection, schedule: Q04DX003 (ip), vehicle: saline
[14] = dose: 100.0 mg/kg/injection, schedule: Q04DX003 (ip), vehicle: saline
[15] = dose: 12.5 mg/kg/injection, schedule: Q01DX009 (ip), vehicle: saline
[16] = dose: 25.0 mg/kg/injection, schedule: Q01DX009 (ip), vehicle: saline

CC1C[N+](C)(C)N=C1[O-] (configuration not stated)
T/C (dose: 100.0 mg/kg/injection, schedule: Q01DX001 (ip), vehicle: saline): 109 % of control | T/C (dose: 200.0 mg/kg/injection, schedule: Q01DX001 (ip), vehicle: saline): 90 % of control | T/C (dose: 400.0 mg/kg/injection, schedule: Q01DX001 (ip), vehicle: saline): 109 % of control

CC(=O)Nc1ccc(C=Nc2ccc3c(c2)Cc2ccccc2-3)cc1
T/C (dose: 100.0 mg/kg/injection, schedule: Q01DX009 (ip), vehicle: Klucel (hydroxypropylcellulose) (HPC)): 109 % of control | T/C (dose: 200.0 mg/kg/injection, schedule: Q01DX009 (ip), vehicle: Klucel (hydroxypropylcellulose) (HPC)): 118 % of control | T/C [1]: 118 % of control

COc1ccc2c(c1OC)CN1CCc3cc4c(cc3C1=C2)OCO4
T/C [2]: 102 % of control | T/C [3]: 90 % of control | T/C [4]: 91 % of control

[Cl][Hg][Cl].c1cnccn1
T/C (dose: 0.25 mg/kg/injection, schedule: Q01DX009 (ip), vehicle: saline with Tween-80): 104 % of control | T/C (dose: 0.5 mg/kg/injection, schedule: Q01DX009 (ip), vehicle: saline with Tween-80): 96 % of control and 109 % of control | T/C (dose: 2.0 mg/kg/injection, schedule: Q04DX003 (ip), vehicle: saline with Tween-80): 95 % of control and 100 % of control | T/C (dose: 4.0 mg/kg/injection, schedule: Q01DX009 (ip), vehicle: saline with Tween-80): 96 % of control | T/C (dose: 4.0 mg/kg/injection, schedule: Q04DX003 (ip), vehicle: saline with Tween-80): 95 % of control and 96 % of control | T/C (dose: 5.0 mg/kg/injection, schedule: Q04DX003 (ip), vehicle: saline with Tween-80): 116 % of control | T/C (dose: 8.0 mg/kg/injection, schedule: Q04DX003 (ip), vehicle: saline with Tween-80): 111 % of control and 119 % of control

CCCOP(=O)(OCCC)C(OC(=O)C(C)C)=C(C)C
T/C [5]: 120 % of control | T/C [6]: 105 % of control

CC(C)CC(Br)C(=O)NCC(=O)NC(Cc1ccccc1)C(=O)O (configuration not stated)
T/C [7]: 95 % of control | T/C [5]: 100 % of control | T/C [6]: 95 % of control

CC(=O)Oc1cccnc1C(C#N)C(C)=O (configuration not stated)
T/C [2]: 90 % of control | T/C [3]: 99 % of control | T/C [4]: 87 % of control

CC(=O)c1ccc(NC(=O)C(F)(F)F)cc1
T/C [7]: 111 % of control | T/C [5]: 96 % of control | T/C [6]: 103 % of control | T/C [8]: 103 % of control

CS(=O)(=O)c1cnc2ccccc2n1
T/C (dose: 25.0 mg/kg/injection, schedule: Q01DX009 (ip), vehicle: saline with Tween-80): 97 % of control | T/C [9]: 99 % of control | T/C [10]: 90 % of control

CC1(C)N=C(N)N=C(N)N1c1cccc(CNC(=O)Nc2cccc(S(=O)(=O)F)c2)c1
T/C [9]: 154 % of control | T/C [7]: 100 % of control | T/C [10]: 168 % of control | T/C [5]: 100 % of control

O=C1/C(=C/c2cccc([N+](=O)[O-])c2)CCc2ccccc21
T/C [11]: 100 % of control | T/C [12]: 100 % of control | T/C [1]: 104 % of control | T/C (dose: 400.0 mg/kg/injection, schedule: Q04DX003 (ip), vehicle: Klucel (hydroxypropylcellulose) (HPC)): 95 % of control

CCCCCOC(=O)c1ccc(OP(=O)(N(C)C)N(C)C)cc1
T/C [9]: 116 % of control | T/C [10]: 100 % of control

COc1ccc(-n2c(=O)c(N=Nc3ccccc3)c(O)n(-c3ccc(C)cc3)c2=S)cc1
T/C (dose: 50.0 mg/kg/injection, schedule: Q01DX001 (ip), vehicle: saline sonified): 90 % of control | T/C (dose: 100.0 mg/kg/injection, schedule: Q01DX001 (ip), vehicle: saline sonified): 100 % of control | T/C (dose: 200.0 mg/kg/injection, schedule: Q01DX001 (ip), vehicle: saline sonified): 100 % of control

C=C(C)C12CC(C)C34OC5(CCCCCCCC(C)C6C(C)C(OC(=O)c7ccccc7)C(O)(C(O)C7(COC(=O)CCCCCCCCCCCCCCC)OC7C3C1O5)C64)O2 (configuration not stated)
T/C (dose: 0.6 micrograms/kg/injection, schedule: Q01DX009 (ip), vehicle: saline + alcohol): 104 % of control | T/C (dose: 1.3 micrograms/kg/injection, schedule: Q01DX009 (ip), vehicle: saline + alcohol): 112 % of control | T/C (dose: 1.5 micrograms/kg/injection, schedule: Q01DX009 (ip), vehicle: saline + alcohol): 103 % of control | T/C (dose: 2.5 micrograms/kg/injection, schedule: Q01DX009 (ip), vehicle: saline + alcohol): 109 % of control | T/C (dose: 3.1 micrograms/kg/injection, schedule: Q01DX009 (ip), vehicle: saline + alcohol): 106 % of control | T/C (dose: 5.0 micrograms/kg/injection, schedule: Q01DX009 (ip), vehicle: saline + alcohol): 112 % of control | T/C (dose: 10.0 micrograms/kg/injection, schedule: Q01DX009 (ip), vehicle: saline + alcohol): 96 % of control | T/C (dose: 12.5 micrograms/kg/injection, schedule: Q01DX009 (ip), vehicle: saline + alcohol): 154 % of control | T/C (dose: 20.0 micrograms/kg/injection, schedule: Q01DX009 (ip), vehicle: saline + alcohol): 116 % of control | T/C (dose: 25.0 micrograms/kg/injection, schedule: Q01DX009 (ip), vehicle: saline + alcohol): 168 % of control | T/C (dose: 50.0 micrograms/kg/injection, schedule: Q01DX009 (ip), vehicle: saline + alcohol): 183 % of control | T/C (dose: 80.0 micrograms/kg/injection, schedule: Q01DX009 (ip), vehicle: saline + alcohol): 116 % of control

O=C1c2ccccc2C(=O)c2c(NCCSCCO)ccc(NCCSCCO)c21
T/C (dose: 25.0 mg/kg/injection, schedule: Q01DX009 (ip), vehicle: other): 95 % of control | T/C (dose: 50.0 mg/kg/injection, schedule: Q01DX009 (ip), vehicle: other): 86 % of control | T/C (dose: 100.0 mg/kg/injection, schedule: Q01DX009 (ip), vehicle: other): 94 % of control

Clc1ccc(-c2noc(CN3CCCCC3)n2)cc1
T/C [9]: 88 % of control | T/C [10]: 88 % of control

CC(NC(=O)OCc1ccccc1)C(=O)NC(CC(=O)O)C(=O)O (configuration not stated)
T/C [13]: 100 % of control | T/C (dose: 50.0 mg/kg/injection, schedule: Q04DX003 (ip), vehicle: saline): 100 % of control | T/C [14]: 110 % of control

CC1(C)OS2(c3ccccc3)OC(=O)c3cccc1c32 (configuration not stated)
T/C (dose: 50.0 mg/kg/injection, schedule: Q04DX002 (ip), vehicle: saline): 94 % of control | T/C (dose: 100.0 mg/kg/injection, schedule: Q04DX002 (ip), vehicle: saline): 100 % of control | T/C (dose: 200.0 mg/kg/injection, schedule: Q04DX002 (ip), vehicle: saline): 100 % of control

CCN(CC)c1ccc(/C=C\c2c(C)cnc3ccccc23)cc1
T/C (dose: 25.0 mg/kg/injection, schedule: Q04DX003 (ip), vehicle: saline with Tween-80): 95 % of control | T/C [7]: 95 % of control | T/C [5]: 96 % of control and 110 % of control | T/C [6]: 97 % of control | T/C [8]: 97 % of control

Cc1cccc(NS(=O)(=O)c2ccc(Cl)cc2)c1C
T/C [14]: 100 % of control | T/C (dose: 200.0 mg/kg/injection, schedule: Q04DX003 (ip), vehicle: saline): 95 % of control | T/C (dose: 400.0 mg/kg/injection, schedule: Q04DX003 (ip), vehicle: saline): 108 % of control

O=C1CC2c3ccccc3C1C1C(=O)OC(=O)C21 (configuration not stated)
T/C [11]: 104 % of control | T/C [12]: 90 % of control

CC(C1CCC/C(=N\NC(N)=O)C1)[N+](=O)[O-] (configuration not stated)
T/C (dose: 0.19 mg/kg/injection, schedule: Q01DX009 (ip), vehicle: saline with Tween-80): 103 % of control | T/C (dose: 0.39 mg/kg/injection, schedule: Q01DX009 (ip), vehicle: saline with Tween-80): 101 % of control and 102 % of control and 119 % of control | T/C (dose: 0.78 mg/kg/injection, schedule: Q01DX009 (ip), vehicle: saline with Tween-80): 95 % of control and 99 % of control | T/C (dose: 1.56 mg/kg/injection, schedule: Q01DX009 (ip), vehicle: saline with Tween-80): 96 % of control and 100 % of control and 109 % of control | T/C (dose: 3.12 mg/kg/injection, schedule: Q01DX009 (ip), vehicle: saline with Tween-80): 93 % of control and 108 % of control and 113 % of control | T/C (dose: 6.25 mg/kg/injection, schedule: Q01DX009 (ip), vehicle: saline with Tween-80): 92 % of control and 94 % of control

CCN(CC)c1ccc(N=Cc2ccccc2S(=O)(=O)O)cc1
T/C (dose: 6.25 mg/kg/injection, schedule: Q01DX009 (ip), vehicle: saline): 100 % of control | T/C (dose: 6.25 mg/kg/injection, schedule: Q04DX003 (ip), vehicle: saline): 104 % of control | T/C [15]: 100 % of control | T/C (dose: 12.5 mg/kg/injection, schedule: Q04DX003 (ip), vehicle: saline): 109 % of control | T/C [16]: 100 % of control | T/C [13]: 104 % of control

CCCCc1ccc(C(=O)O)nc1
T/C [15]: 100 % of control | T/C [16]: 102 % of control | T/C (dose: 50.0 mg/kg/injection, schedule: Q01DX009 (ip), vehicle: saline): 102 % of control
